Structures can show the parent of a compound that is named as a salt.

The target in the assay is T1, rat squalene epoxidase (Rattus norvegicus, UniProt P52020).
T1 construct: Livers were extracted and homogenized; from tissue; host or cells: liver of SD-strain female rats; microsomes solubilized with 2 % Triton X-100, 105000 x g supernatant
T1 sequence (P52020 whole entry): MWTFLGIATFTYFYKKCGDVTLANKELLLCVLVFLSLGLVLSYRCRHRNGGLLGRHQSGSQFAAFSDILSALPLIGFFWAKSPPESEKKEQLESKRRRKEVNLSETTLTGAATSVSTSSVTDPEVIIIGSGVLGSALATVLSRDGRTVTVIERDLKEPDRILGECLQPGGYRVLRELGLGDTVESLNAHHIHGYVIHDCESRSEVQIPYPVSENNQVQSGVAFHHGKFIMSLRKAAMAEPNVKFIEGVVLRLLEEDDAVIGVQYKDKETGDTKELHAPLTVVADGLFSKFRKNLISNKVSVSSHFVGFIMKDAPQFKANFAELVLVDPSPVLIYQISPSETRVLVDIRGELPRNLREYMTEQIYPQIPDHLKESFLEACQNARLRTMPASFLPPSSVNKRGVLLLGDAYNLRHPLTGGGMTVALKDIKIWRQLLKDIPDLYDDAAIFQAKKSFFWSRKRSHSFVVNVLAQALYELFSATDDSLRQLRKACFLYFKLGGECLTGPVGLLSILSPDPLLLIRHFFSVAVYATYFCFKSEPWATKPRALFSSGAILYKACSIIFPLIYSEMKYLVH
Nature of the assay: Squalene epoxidase inhibiting activity (3H-squalene to squalene-2,3-epoxide, solubilized liver microsome fraction). The assay is classed as biochemical. The following applies: 8 µM 3H-squalene, 37 °C, 30 minutes, read-out: 50 % inhibitory concentration (IC50). The method, then:
The rat squalene epoxidase was prepared by the method described in J. Biol. Chem., vol.
SD-strain female rats were killed by exsanguination. Livers were extracted and homogenized with in the presence of 2 volumes of 0.1M Tris-HCl buffer (pH 7.5). The homogenate was centrifuged at 9750 Xg for 10 minutes. The supernatant fraction was further centrifuged at 105000 Xg for 1 hour. The sediment was washed with 0.1M Tris-HCl buffer (pH 7.5), and then centrifuged at 105000 Xg for 1 hour. The microsomes obtained were suspended in 0.1M Tris-HCl buffer (pH 7.5) so that the amount of proteins was 40 mg/ml, and under ice cooling, the suspension was stirred in the presence of 2 % Triton X-100 to solubilize the enzyme. After the solubilization, the solution was diluted to a Triton X-100 concentration of 0.5 % with 1 mM EDTA and 1 mM dithiothreitol, and centrifuged at 105000 Xg for 1 hour. The resulting supernatant fraction was used in the following test as a squalene epoxidase fraction.
The squalene epoxidase activity was assayed in accordance with the method described in J. Biol. Chem., vol.
Three microliters of a dimethyl sulfoxide solution of a test drug was added to a solution composed of 0.2 ml of the squalene epoxidase fraction prepared in (1) [proteins 0.4 mg, 0.5 % Triton X-100, […] Tris-HCl buffer (pH 7.5)], 100 µM FAD, 1 mM NADPH, 1 mM EDTA and 8 µM ³H-squalene-Tween 80 emulsion to adjust the total amount of the solution to 0.3 ml. The solution was incubated at 37 °C for 30 minutes with shaking. Then, 0.3 ml of a 10 % methanolic potassium hydroxide was added to stop the reaction, and the reaction mixture was left to stand at room temperature for 1 hour. The non-saponified material was extracted with petroleum ether, and the solvent was evaporated under a nitrogen stream. […] The position of the resulting ³H-squalene-2,3-epoxide on TLC was determined using ergosterol acetate as a marker, and the ³H-squalene-2,3-epoxide portion on the TLC was cut off. The TLC strip was immersed in a toluene-type scintillator, and measured by a liquid scintillation counter.
Consider `Cc1cccc(COc2cccc(CN(C)C/C=C/C#CC(C)(C)C)c2)c1C` [Compound 55, (E)-N-(6,6-dimethyl-2-hepten-4-ynyl)-N-methyl-3-(2,3-dimethylbenzyloxy)benzylamine hydrochloride], for which the IC50 is 0.6 µM.
Under `CN(C/C=C/c1ccccc1)Cc1cccc2ccccc12` [naftifine, reference compound] stands greater than 100 µM; under `CN(C/C=C/C#CC(C)(C)C)Cc1cccc(CNc2ccccc2)c1` [Compound 104, (E)-N-[6,6-dimethyl-2-hepten-4-ynyl]-N-methyl-3-anilinomethylbenzylamine hydrochloride], 7.7 µM; under `CN(C/C=C/C#CC(C)(C)C)Cc1cccc(OCc2cccc(-c3ncco3)c2)c1` [Compound 76, (E)-N-(6,6-dimethyl-2-hepten-4-ynyl)-N-methyl-3-[3-(2-oxazolyl)benzyloxy]benzylamine], 1.2 µM.
As for `CN(C/C=C/C#CC(C)(C)C)Cc1cccc(OCc2ccccc2F)c1` [Compound 66, (E)-N-(6,6-dimethyl-2-hepten-4-ynyl)-N-methyl-3-(2-fluorobenzyloxy)benzylamine hydrochloride], the IC50 was found to be 1.2 µM.
Take `CN(C/C=C/C#CC(C)(C)C)Cc1cccc(OCc2ccccc2C(F)(F)F)c1` [Compound 68, (E)-N-(6,6-dimethyl-2-hepten-4-ynyl)-N-methyl-3-(2-trifluoromethylbenzyloxy)benzylamine hydrochloride]: the IC50 was determined as 1.2 µM.
Then `CN(C/C=C/C#CC(C)(C)C)Cc1cccc(OCc2cccc(-c3ccco3)c2)c1` [Compound 75, (E)-N-(6,6-dimethyl-2-hepten-4-ynyl)-N-methyl-3-[3-(2-furyl)benzyloxy]benzylamine hydrochloride], with 0.14 µM.
Then `CN(C/C=C/C#CC(C)(C)C)Cc1cccc(OCc2cccc(CO)c2)c1` [Compound 96, (E)-N-(6,6-dimethyl-2-hepten-4-ynyl)-N-methyl-3-(3-hydroxymethylbenzyloxy)benzylamine], with 0.84 µM.
Consider `CN(C/C=C/C#CC(C)(C)C)Cc1ccc(/C=C/c2ccccc2)o1` [Compound 115, N-[(E)-6,6-dimethyl-2-hepten-4-ynyl]-N-methyl-5-[(E)-styryl]furfurylamine], for which the IC50 worked out at 0.27 µM.
As for `Cc1ccc(COc2cccc(CN(C)C/C=C/C#CC(C)(C)C)c2)cc1` [Compound 54, (E)-N-(6,6-dimethyl-2-hepten-4-ynyl)-N-methyl-3-(4-methylbenzyloxy)benzylamine], the IC50 came out at 1.8 µM.
For `CN(C/C=C/C#CC(C)(C)C)Cc1cccc(OCc2cccc(-c3ccccc3)c2)c1` [Compound 74, (E)-N-(6,6-dimethyl-2-hepten-4-ynyl)-N-methyl-3-(3-phenylbenzyloxy)benzylamine hydrochloride], the IC50 amounted to 0.57 µM.
Turning to `C#CCN(C/C=C/C#CC(C)(C)C)Cc1cccc(OCc2ccccc2)c1` [Compound 42, (E)-N-(6,6-dimethyl-2-hepten-4-ynyl)-N-propargyl-3-benzyloxybenzylamine], the IC50 was determined as 9.6 µM.
As to `CN(C/C=C/C#CC(C)(C)C)Cc1cccc(OCc2ccccc2Cl)c1` [Compound 56, (E)-N-(6,6-dimethyl-2-hepten-4-ynyl)-N-methyl-3-(2-chlorobenzyloxy)benzylamine], the IC50 came to 2.1 µM.
Under `CC(C)=CCOc1cccc(COc2cccc(CN(C)C/C=C/C#CC(C)(C)C)c2)c1` [Compound 73, (E)-N-(6,6-dimethyl-2-hepten-4-ynyl)-N-methyl-3-[3-(3-methyl-2-butenyloxy)benzyloxy]benzylamine] stands 2.3 µM; under `Cc1ccccc1COc1cccc(CN(C)C/C=C/C=C/C(C)(C)C)c1` [Compound 132, (E),(E)-N-(6,6-dimethyl-2,4-heptadienyl)-N-methyl-3-(2-methylbenzyloxy)benzylamine], 5.4 µM; under `CN(C/C=C/C#CC(C)(C)C)Cc1cccc(C#Cc2ccccc2)c1` [Compound 101, (E)-N-(6,6-dimethyl-2-hepten-4-ynyl)-N-methyl-3-(2-phenylethynyl)benzylamine], 2.1 µM.
Under `CC(C)=Cc1cccc(COc2cccc(CN(C)C/C=C/C#CC(C)(C)C)c2)c1` [Compound 70, (E)-N-(6,6-dimethyl-2-hepten-4-ynyl)-N-methyl-3-[3-(2-methyl-1-propenyl)benzyloxy]benzylamine] stands 3.1 µM; under `Cc1cccc(COc2cccc(CN(C)C/C=C/C#CC(C)(C)C)c2)c1` [Compound 53, (E)-N-(6,6-dimethyl-2-hepten-4-ynyl)-N-methyl-3-(3-methylbenzyloxy)benzylamine], 0.66 µM; under `CC(C)(C)C#C/C=C/CN(Cc1cccc(OCc2ccccc2)c1)C1CC1` [Compound 43, (E)-N-cyclopropyl-N-(6,6-dimethyl-2-hepten-4-ynyl)-3-benzyloxybenzylamine], 3.9 µM.
With `Cc1occc1COc1cccc(CN(C)C/C=C/C#CC(C)(C)C)c1` [Compound 83, (E)-N-(6,6-dimethyl-2-hepten-4-ynyl)-N-methyl-3-[(2-methyl-3-furyl)methyloxy]benzylamine], the IC50 came to 1.9 µM.
In the case of `Cc1ccc(CN(C)C/C=C/C#CC(C)(C)C)cc1OCc1ccccc1` [Compound 28, (E)-(6,6-dimethyl-2-hepten-4-ynyl)-N-methyl-3-benzyloxy-4-methylbenzylamine], the IC50 was found to be 5.6 µM.
Then `CN(C/C=C/C#CC(C)(C)C)Cc1cccc(OCc2ccc(F)cc2)c1` [Compound 10, (E)-N-(6,6-dimethyl-2-hepten-4-ynyl)-N-methyl-3-(4-fluorobenzyloxy)benzylamine], with 4.7 µM; and `CN(C/C=C/C#CC(C)(C)C)Cc1cccc(OCc2cccc(Cl)c2)c1` [Compound 8, (E)-N-(6,6-dimethyl-2-hepten-4-ynyl)-N-methyl-3-(3-chlorobenzyloxy)benzylamine], with 2.9 µM.
With `CN(C/C=C/C#CC(C)(C)C)Cc1cccc(NCc2ccccc2)c1` [Compound 102, (E)-N-(6,6-dimethyl-2-hepten-4-ynyl)-N-methyl-3-benzylaminobenzylamine], the IC50 amounted to 2.1 µM.
Under `CC(Oc1cccc(CN(C)C/C=C/C#CC(C)(C)C)c1)c1ccccc1` (stereo not drawn) [Compound 16, (E)-N-(6,6-dimethyl-2-hepten-4-ynyl)-N-methyl-3-(alpha-phenethyloxy)benzylamine] stands 1.4 µM; under `Cc1ccccc1/C=C/c1cccc(CN(C)C/C=C/C#CC(C)(C)C)c1` [Compound 99, N-[(E)-6,6-dimethyl-2-hepten-4-ynyl]-N-methyl-3-[(E)-o-methylstyryl]benzylamine], 2 µM.
Under `COc1cccc(COc2cccc(CN(C)C/C=C/C#CC(C)(C)C)c2)c1` [Compound 52, (E)-N-(6,6-dimethyl-2-hepten-4-ynyl)-N-methyl-3-(3-methoxybenzyloxy)benzylamine hydrochloride] stands 1.4 µM; under `Cc1cc(CN(C)C/C=C/C#CC(C)(C)C)cc(OCc2ccccc2)c1` [Compound 48, (E)-N-(6,6-dimethyl-2-hepten-4-ynyl)-N-methyl-3-benzyloxy-5-methylbenzylamine hydrochloride], 5.1 µM.
Under `C=C(C)Cc1cccc(COc2cccc(CN(C)C/C=C/C#CC(C)(C)C)c2)c1` [Compound 71, (E)-N-(6,6-dimethyl-2-hepten-4-ynyl)-N-methyl-3-[3-(2-methyl-2-propenyl)benzyloxy]benzylamine] stands 0.54 µM.
Take `CN(C/C=C/C#CC(C)(C)C)Cc1cccc(OCc2cccc3cccnc23)c1` [Compound 87, (E)-N-(6,6-dimethyl-2-hepten-4-ynyl)-N-methyl-3-(8-quinolylmethyloxy)benzylamine hydrochloride]: the IC50 was 3.5 µM.
Under `CN(C/C=C/C#CC(C)(C)C)Cc1cccc(OC/C=C/c2ccccc2)c1` [Compound 63, N-[(E)-6,6-dimethyl-2-hepten-4-ynyl]-N-methyl-3-[(E)-3-phenyl-2-propenyloxy]benzylamine hydrochloride] stands 5.4 µM.

Values taken from patent publication EP0318860B1, “Substituted alkylamine derivatives” (BANYU PHARMACEUTICAL CO., LTD., priority 1987, dated 1989).
